From patent publication US10300067B2, “Tetrahydropyridopyrimidine compound or salt thereof” (TAIHO PHARMACEUTICAL CO., LTD., priority 2014, dated 2019)

What was measured:
Type in all cases: cell-based
[1] = system: Human prostate cancer cells LNCaP; test: Androgen-dependent inhibitory activity on proliferation of prostate cancer cells; settings: 50% proliferation inhibition concentration, DHT 10 nmol/L, 72 hours, read-out: GI50 value
Description: Human prostate cancer cells LNCaP (Non-Patent Literature 5) having […] androgen receptor gene were seeded in a clear bottom 96 well microplate (BD) at 4.0×10^3/well with phenol red free RPMI1640 containing 5% DCC-FBS (hereinbelow, the medium is referred to as an evaluation medium), and then cultured overnight. The culture was added with the evaluation medium containing DHT (final concentration of DHT: 10 nmol/L) or the evaluation medium containing the compound of Examples or the compound of Comparative Examples (final concentration of the compound of Examples or the compound of Comparative Examples: 10, 30, 100, 300, 1000, 3000, 10000, or 30000 nmol/L), followed by culture for 72 hours. Then, the number of viable cells was counted. The number of viable cells was measured by using Cell Counting Kit-8 (DOJINDO LABORATORIES).

[2] = system: AR positive human prostate cancer cells VCaP; test: Agonist activity for AR (cell proliferation rate of VCaP cells); settings: 72 hours, 2 to 10000 nmol/L, more than 10% at any concentration = agonist activity for AR
Description: AR positive human prostate cancer cells VCaP (In Vivo 15:163-168, 2001) were seeded in a clear bottom 96 well microplate (BD) at 1.5×10^4/well with phenol red free RPMI1640 containing 5% DCC-FBS (hereinbelow, the medium is referred to as an evaluation medium), and then cultured overnight. The culture was added with the evaluation medium containing the compound of Examples or the compound of Comparative Examples (final concentration of the compound of Examples or the compound of Comparative Examples: 2, 5, 14, 41, 123, 370, 1111, 3333, or 10000 nmol/L), followed by culture for 72 hours. Then, the number of viable cells was counted (test group). As a control, the cells were cultured after being added with the evaluation medium only, and the number of viable cells was counted (control group). The number of viable cells was measured by using CellTiter-Glo™ Luminescent Cell Viability Assay (Promega). From the measured number of viable cells, cell proliferation rate with respect to the compound of Examples or the compound of Comparative Examples was calculated based on the number of viable cells measured in the case of using the evaluation medium only. Cell proliferation rate (%) =(Number of viable cells in test group−Number of viable cells in control group)/(Number of viable cells in control group)×100
By considering an error in the number of viable cells measured in the case of using the evaluation medium only, when the cell proliferation rate was more than 10% at any concentration of the 9 concentrations which had been evaluated, it was determined to have an agonist activity for AR.

human androgen receptor = human androgen receptor (Homo sapiens (Human), UniProt P10275); test: Antagonist activity for AR (pMMTV-luc reporter transcription activity in transfected COS-7 cells, DHT 1 nmol/L); settings: 50% transcription activity inhibition concentration; COS-7 cells with pMMTV-luc and pEX-hAR, DHT 1 nmol/L, 24 hours
Chain of human androgen receptor (P10275 whole entry): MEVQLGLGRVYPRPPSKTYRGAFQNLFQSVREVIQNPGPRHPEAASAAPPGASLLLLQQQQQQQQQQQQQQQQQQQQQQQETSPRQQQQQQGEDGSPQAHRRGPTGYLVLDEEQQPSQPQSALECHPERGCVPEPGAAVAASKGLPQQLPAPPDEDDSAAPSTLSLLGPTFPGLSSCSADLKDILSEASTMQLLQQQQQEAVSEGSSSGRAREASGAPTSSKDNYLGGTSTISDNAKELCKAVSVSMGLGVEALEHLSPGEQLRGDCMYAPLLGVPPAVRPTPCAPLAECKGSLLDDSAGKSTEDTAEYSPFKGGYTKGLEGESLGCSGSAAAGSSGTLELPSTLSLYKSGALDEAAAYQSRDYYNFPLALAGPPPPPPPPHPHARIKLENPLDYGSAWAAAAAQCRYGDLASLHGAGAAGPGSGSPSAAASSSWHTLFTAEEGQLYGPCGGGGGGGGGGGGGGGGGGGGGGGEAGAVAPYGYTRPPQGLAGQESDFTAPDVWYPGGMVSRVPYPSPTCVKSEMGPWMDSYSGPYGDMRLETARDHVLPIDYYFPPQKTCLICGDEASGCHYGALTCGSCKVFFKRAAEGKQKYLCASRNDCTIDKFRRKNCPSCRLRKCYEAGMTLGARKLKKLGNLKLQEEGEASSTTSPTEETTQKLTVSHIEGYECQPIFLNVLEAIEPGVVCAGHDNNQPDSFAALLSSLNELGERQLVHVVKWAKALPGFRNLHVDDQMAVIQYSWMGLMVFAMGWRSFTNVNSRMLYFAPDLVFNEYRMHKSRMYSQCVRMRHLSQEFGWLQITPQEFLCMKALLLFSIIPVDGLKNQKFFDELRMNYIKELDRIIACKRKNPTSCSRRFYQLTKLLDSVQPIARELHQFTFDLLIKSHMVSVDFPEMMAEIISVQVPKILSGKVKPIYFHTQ
Description: Antagonist activity for AR was evaluated according to the following method. COS-7 cells (ATCC) were transfected with pMMTV-luc vector (reporter plasmid having, as an androgen response element, […] long terminal repeat) and pEX-hAR vector (human androgen receptor expression vector: which expresses human AR gene under control of CMV promoter) by using Nucleofector (registered trademark) Kit R (Lonza) as a transfection reagent and Amaxa (Lonza). The COS-7 cells obtained after transfection were seeded in a clear bottom 96 well microplate (BD) at 1.5×10^4/well with phenol red free RPMI1640 containing 10% charcoal-treated fetal bovine serum (hereinbelow, DCC-FBS) (hereinbelow, the medium is referred to as an evaluation medium), and then cultured overnight. […] Then, the transcription activity value was measured. The transcription activity was measured by using Bright-Glo™ Luciferase Assay System (Promega).

androgen receptor = androgen receptor (Homo sapiens (Human), UniProt P10275, T878A); test: Activity of reducing expression level of androgen receptor (Western blotting of LNCaP cell lysate); settings: 48 hours
Chain of androgen receptor (P10275 whole entry T878A): as the sequence (P10275 whole entry) above, with T878A counted along it
Description: AR positive human prostate cancer cells LNCaP were seeded in a clear bottom 6 well microplate (BD) at 3.5×10^5/well with phenol red free RPMI1640 containing 5% FBS (hereinbelow, the medium is referred to as an evaluation medium), and then cultured overnight. The culture was added with the evaluation medium containing the compound of Examples or the compound of Comparative Examples such that the final concentration of the compound of Examples or the compound of Comparative Examples was 10000 nmol/L, followed by culture for 48 hours. After culture for 48 hours, the medium was removed and the cells were washed with PBS and added with 0.1 mL of Lysis buffer (M-PER added with Protease Inhibitor Cocktail), followed by keeping at 4° C. for 20 minutes. After cell lysis, the cell solution was centrifuged to recover the supernatant as cell lysate. […] The antibody-reacting band (anti AR receptor) was quantified by LAS-3000 (FUJIFILM) using Super Signal West Pico Substrate (Thermo Scientific) as a detection reagent.

SMILES | GI50 [1] [nM] | Cell proliferation rate (%) [2] [%] | IC50 (human androgen receptor) [nM] | 10 μM AR expression reducing activity (androgen receptor)
CC(O)(CS(=O)(=O)c1ccc(F)cc1)C(=O)Nc1ccc(C#N)c(C(F)(F)F)c1 (stereo not drawn) [Comparative Example 1, N-(4-Cyano-3-(trifluoromethyl)phenyl)-3-((4-fluorophenyl)sulfonyl)-2-hydroxy-2-methylpropanamide, reference compound] | 3500 | 39.7 |  | 
N#Cc1ccc(N2CCc3c(ncnc3Nc3ccc(S(=O)(=O)NC4CC4)cn3)C2)cc1C(F)(F)F [Example 19, 6-((7-(4-Cyano-3-(trifluoromethyl)phenyl)-5,6,7,8-tetrahydropyrido[3,4-d]pyrimidin-4-yl)amino)-N-cyclopropylpyridine-3-sulfonamide] | 3000 |  | 130 | 
N#Cc1ccc(N2CCc3c(ncnc3Nc3ccc(NC(=O)CC(F)(F)F)cn3)C2)cc1C(F)(F)F [Example 23, N-(6-((7-(4-Cano-3-(trifluoromethyl)phenyl)-5,6,7,8-tetrahydropyrido[3,4-d]pyrimidin-4-yl)amino)pyridin-3-yl)-3,3,3-trifluoropropanamide] | 1500 | 5.1 | 800 | 
N#Cc1ccc(N2CCc3c(ncnc3Nc3ccc(C(=O)NCC(F)F)cn3)C2)cc1C(F)(F)F [Example 27, 6-((7-(4-Cyano-3-(trifluoromethyl)phenyl)-5,6,7,8-tetrahydropyrido[3,4-d]pyrimidin-4-yl)amino)-N-(2,2-difluoroethyl)nicotinamide] | 2800 | −0.2 | 90 | 
N#Cc1ccc(N2CCc3c(ncnc3Nc3ccc(C(=O)N[C@H]4CC[C@H](O)CC4)nn3)C2)cc1Cl [Example 29, 6-((7-(3-Chloro-4-cyanophenyl)-5,6,7,8-tetrahydropyrido[3,4-d]pyrimidin-4-yl)amino)-N-((1r,4r)-4-hydroxycyclohexyl)pyridazine-3-carboxamide] | 200 |  | 200 | 
CC(C)(O)CNC(=O)c1cnc(Nc2ncnc3c2CCN(c2ccc(C#N)c(C(F)(F)F)c2)C3)cn1 [Example 33, 5-((7-(4-Cyano-3-(trifluoromethyl)phenyl)-5,6,7,8-tetrahydropyrido[3,4-d]pyrimidin-4-yl)amino)-N-(2-hydroxy-2-methylpropyl)pyrazine-2-carboxamide] | 2100 | 4.4 | 310 | 
Cn1nccc1CCNC(=O)c1nnc(Nc2ncnc3c2CCN(c2ccc(C#N)c(C(F)(F)F)c2)C3)s1 [Example 35, 5-((7-(4-Cano-3-(trifluoromethyl)phenyl)-5,6,7,8-tetrahydropyrido[3,4-d]pyrimidin-4-yl)amino)-N-(2-(1-methyl-1H-pyrazol-5-yl)ethyl)-1,3,4-thiadiazol-2-carboxamide] | 1600 | 0.1 | 190 | 
C[C@@H](NC(=O)c1sc(Nc2ncnc3c2CCN(c2ccc(C#N)c(C(F)(F)F)c2)C3)nc1C(F)(F)F)c1nnco1 [Example 37, (R)—N-(1-(1,3,4-Oxadiazol-2-yl)ethyl)-2-((7-(4-cyano-3-(trifluoromethyl)phenyl)-5,6,7,8-tetrahydropyrido[3,4-d]pyrimidin-4-yl)amino)-4-(trifluoromethyl) thiazol-5-carboxamide] |  | 0.9 | 170 | reduced (When the AR expression reducing activity is 50% or more, it is described as “reduced”)
C[C@@H](NC(=O)c1nnc(Nc2ncnc3c2CCN(c2ccc(C#N)c(C(F)(F)F)c2)C3)s1)c1nnco1 [Example 39, (R)—N-(1-(1,3,4-Oxadiazol-2-yl)ethyl)-5-((7-(4-cyano-3-(trifluoromethyl)phenyl)-5,6,7,8-tetrahydropyrido[3,4-d]pyrimidin-4-yl)amino)-1,3,4-thiadiazol-2-carboxamide] |  | 5.5 | 2050 | reduced (When the AR expression reducing activity is 50% or more, it is described as “reduced”)
CC(C)(O)c1ccc(Nc2ncnc3c2CCN(c2ccc(C#N)c(Br)c2)C3)nc1 [Example 44, 2-Bromo-4-(4-((5-(2-hydroxypropan-2-yl)pyridin-2-yl)amino)-5,6-dihydropyrido[3,4-d]pyrimidin-7(8H)-yl)benzonitrile] |  | 5.2 | 50 | reduced (When the AR expression reducing activity is 50% or more, it is described as “reduced”)
CC(C)(O)c1ccc(Nc2ncnc3c2CCN(c2ccc(C#N)c(Cl)c2)C3)nc1F [Example 46, 2-Chloro-4-(4-((6-fluoro-5-(2-hydroxypropan-2-yl)pyridin-2-yl)amino)-5,6-dihydropyrido[3,4-d]pyrimidin-7 (8H)-yl)benzonitrile] |  | 1.0 | 250 | reduced (When the AR expression reducing activity is 50% or more, it is described as “reduced”)
CC(C)(O)c1cnc(Nc2ncnc3c2CCN(c2ccc(C#N)c(C(F)(F)F)c2)C3)cc1F [Example 47, 4-(4-((4-Fluoro-5-(2-hydroxypropan-2-yl)pyridin-2-yl)amino)-5,6-dihydropyrido[3,4-d]pyrimidin-7 (8H)-yl)-2-(trifluoromethyl)benzonitrile] |  | 1.9 | 70 | reduced (When the AR expression reducing activity is 50% or more, it is described as “reduced”)
CC(C)(COc1ncc(Nc2ncnc3c2CCN(c2ccc(C#N)c(C(F)(F)F)c2)C3)cc1F)n1cnnn1 [Example 50, 4-(4-((5-Fluoro-6-(2-methyl-2-(1H-tetrazol-1-yl)propoxy)pyridin-3-yl)amino)-5,6-dihydropyrido[3,4-d]pyrimidin-7(8H)-yl)-2-(trifluoromethyl)benzonitrile] |  | −3.7 | 320 | reduced (When the AR expression reducing activity is 50% or more, it is described as “reduced”)
CC(C)(COc1ncc(Nc2ncnc3c2CCN(c2ccc(C#N)c(C(F)(F)F)c2)C3)cc1F)n1ccnn1 [Example 51, 4-(4-((5-Fluoro-6-(2-methyl-2-(1H-1,2,3-triazol-1-yl)propoxy)pyridin-3-yl)amino)-5,6-dihydropyrido[3,4-d]pyrimidin-7(8H)-yl)-2-(trifluoromethyl)benzonitrile] |  | −5.4 | 1100 | reduced (When the AR expression reducing activity is 50% or more, it is described as “reduced”)
CC(C)(COc1ncc(Nc2ncnc3c2CCN(c2ccc(C#N)c(C(F)(F)F)c2)C3)cc1Cl)n1cnnn1 [Example 52, 4-(4-((5-Chloro-6-(2-methyl-2-(1H-tetrazol-1-yl)propoxy)pyridin-3-yl)amino)-5,6-dihydropyrido[3,4-d]pyrimidin-7(8H)-yl)-2-(trifluoromethyl)benzonitrile] |  | −3.4 | 150 | reduced (When the AR expression reducing activity is 50% or more, it is described as “reduced”)
